In patent US11957661B2, “JAK1 pathway inhibitors for the treatment of vitiligo” (Incyte Corporation, priority 2020, dated 2024):

Assays:
Normal Human Melanocytes [1] = test: Melanocyte proliferation assay with 20% CD8+ T cell conditioned media; assay type: cell-based
Procedure: The assay investigates an in vitro system using CD8+ T Cells and melanocytes. The assay tests whether Compound 1 modulates the inflammatory response and how such modulation affects melanocyte biology.
(§1) Methods: CD8+ T cell Conditioned Media Step: Normal Human CD8+ T Cells from peripheral blood were purchased ([…] Technologies). They were cultured for 48 hours at 37 C and 5% CO2 under activating and unactivating conditions inside the Incucyte Live-Cell Analysis System (Essen Bioscience). Activated T cells were cultured in a flat bottom 96 well plate (Costar) that was first coated with 10 ug/ml anti-CD3 (BD Biosciences) for 2 hours at room temperature and then washed one time with PBS before cells were added. They were grown in Melanocyte Growth Medium (NHM-GM, MatTek) containing 1 ug/ml anti-CD28 (BD Biosciences). Unactivated T cells were treated the same way except that they were cultured in a separate plate without anti-CD3 and anti-CD28. Each T cell plate was treated at seeding with Compound 1 (1000, 100, or 10 nM) or media alone. Each treatment was done in triplicate. After 48 hours, all the samples (T cells and media) were transferred to new V-bottom plates and centrifuged at 1300 RPMs for 10 minutes. Supernatants were collected from the T cell pellets carefully to not disturb the pellet. The supernatants (CD8+ T cell Conditioned Media) used fresh to treat the melanocyte. The remaining amounts were stored at −80 C and then thawed for protein analysis by Luminex technology (custom Procarta 45-plex, Thermo Fisher Scientific). The treated CD8+ T cell pellets were lysed using the Quantigene sample processing kit reagents following the kit instructions. Lysates were stored at −80 C and then thawed for RNA analysis by Luminex technology using two custom Quantigene 80-Plexes—150 targeted genes total (Thermo Fisher Scientific).
(§2) Melanocyte Proliferation Step: Normal Human Melanocytes isolated from a donor's neonatal foreskin epidermis were purchased (MatTek). They were thawed and seeded following manufacturer's instruction in NHM-GM media in flat bottom 96 well plates (Costar) for 18 hours at 37 C and 5% CO2. They were approximately 10% confluent when treated with 20% CD8+ T cell Conditioned Media (25 ul Conditioned media added to 100 ul of NHM-GM already in the wells). They were cultured for 48 hours at 37 C and 5% CO2 inside the Incucyte Live-Cell Analysis System (Essen Bioscience) with 5 images per well taken every 3 hrs. After 48 hours, all the supernatants were transferred from the melanocyte plates to new V-bottom plates and centrifuged at 1300 RPMs for 10 minutes. Supernatants were collected and were stored at −80 C and then thawed for protein analysis by Luminex technology (custom Procarta 45-plex, Thermo Fisher Scientific). The treated melanocytes were lysed using the Quantigene sample processing kit reagents following the kit instructions. Lysates were stored at −80 C and then thawed for RNA analysis by Luminex technology using two custom Quantigene 80-Plexes for a total of 150 targeted genes (Thermo Fisher Scientific). Incucyte images were analyzed using the Incucyte software and the percentage of melanocyte confluence was determined for each treatment.
The assay investigates an in vitro system using CD8+ T Cells and melanocytes. The assay tests whether ruxolitinib modulates the inflammatory response and how such modulation affects melanocyte biology. […]

[2] = tested on: CD3/CD28-activated human CD8+ T cells; test: Protein analysis (Luminex) of CD8+ T cell conditioned media; assay type: cell-based
Procedure: as §1
as §1, with “ruxolitinib” for “Compound 1”

Normal Human Melanocytes [3] = test: Protein analysis (Luminex) of melanocyte media after 20% CD8+ T cell conditioned media; assay type: cell-based
Procedure: as §2

human JAK1 = human JAK1 (Homo sapiens, UniProt P23458); test: In vitro JAK kinase assay (HTRF, Example A); assay type: biochemical; settings: 1 mM ATP
Procedure: (§3) The catalytic activity of JAK1, JAK2 or JAK3 was assayed by measuring the phosphorylation of a biotinylated peptide. The phosphorylated peptide was detected by homogenous time resolved fluorescence (HTRF). […] Reactions were carried out at room temperature for 1 hour and then stopped with 20 μL 45 mM EDTA, 300 nM SA-APC, 6 nM Eu-Py20 in assay buffer (Perkin Elmer, Boston, MA). Binding to the Europium labeled antibody took place for 40 minutes and HTRF signal was measured on a Fusion plate reader (Perkin Elmer, Boston, MA).

human JAK2 = human JAK2 (Homo sapiens (Human), UniProt O60674); test: In vitro JAK kinase assay (HTRF, Example A); assay type: biochemical; settings: JAK2/JAK1 IC50 ratio, 1 mM ATP
Procedure: as §3

[4] = co-cultured with CD3/CD28-activated human CD8+ T cells
[5] = melanocytes treated with activated T cell conditioned media

Chain of human JAK2 (O60674 828-1132): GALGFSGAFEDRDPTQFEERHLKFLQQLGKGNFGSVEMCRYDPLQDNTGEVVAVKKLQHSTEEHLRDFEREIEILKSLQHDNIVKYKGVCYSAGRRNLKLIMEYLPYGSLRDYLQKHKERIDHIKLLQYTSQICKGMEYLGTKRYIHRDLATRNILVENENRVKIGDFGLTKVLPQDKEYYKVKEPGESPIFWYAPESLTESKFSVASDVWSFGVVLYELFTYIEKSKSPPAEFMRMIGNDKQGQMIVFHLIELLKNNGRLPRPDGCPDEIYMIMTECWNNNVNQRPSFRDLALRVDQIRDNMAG

IC50 (human JAK1) [nM]	JAK2/JAK1 (human JAK2)	SMILES	also measured
–	–	N#CC[C@H](C1CCCC1)n1cc(-c2ncnc3[nH]ccc23)cn1 [ruxolitinib]	suppressed melanocyte proliferation response (Normal Human Melanocytes [1]; 1000 nM co-cultured with CD3/CD28-activated human CD8+ T cells, 20% conditioned media): completely reverse; spontaneous proliferation compared to the natural melanocyte proliferation rate (Normal Human Melanocytes [1]; added to the inflammatory culture media, time-dependent): significant reduction; LIF, T cells ([2]; T cell data): on-target inhibition; IL-2, protein T cell media [2, 4]: upregulated; IL-4, protein T cell media [2, 4]: no effect; IL-5, protein T cell media [2, 4]: no effect; IL-6, protein T cell media [2, 4]: no effect; additional mediators not obligated to use JAK1 signaling (growth factors and chemokine), protein T cell media [2, 4]: reduced; inflammatory cytokines that are JAK-STAT dependent, protein T cell media [2, 4]: inhibits; IL-8 concentration, CD8+ T cells ([2]; treatment of CD8+ T cells): slightly reduced; IL-10, protein melanocyte media (Normal Human Melanocytes [3]; [5]): no effect; IL-13, protein melanocyte media (Normal Human Melanocytes [3]; [5]): no effect; inflammatory cytokines that are JAK-STAT dependent, protein melanocyte media (Normal Human Melanocytes [3]; [5]): reduces; IL-8, protein melanocyte media (Normal Human Melanocytes [3]; melanocytes under stress conditions): reduced
< 10	>10	N#CCC1(n2cc(-c3ncnc4[nH]ccc34)cn2)CN(C2CCN(C(=O)c3ccnc(C(F)(F)F)c3F)CC2)C1 [Compound 4, {1-{1-[3-Fluoro-2-(trifluoromethyl)isonicotinoyl]piperidin-4-yl}-3-[4-(7H-pyrrolo[2,3-d]pyrimidin-4-yl)-1H-pyrazol-1-yl]azetidin-3-yl}acetonitrile]	–
< 10	>10	N#CCC1(n2cc(-c3ncnc4[nH]ccc34)cn2)CN([C@H]2CC[C@@H](Oc3cc(CN4CC[C@H](O)C4)cc(C(F)(F)F)n3)CC2)C1 [Compound 22, {1-(cis-4-{[4-{[(3S)-3-hydroxypyrrolidin-1-yl]methyl}-6-(trifluoromethyl)pyridin-2-yl]oxy}cyclohexyl)-3-[4-(7H-pyrrolo[2,3-d]pyrimidin-4-yl)-1H-pyrazol-1-yl]azetidin-3-yl}acetonitrile]	–
< 10	>10	C[C@@H](CO)NCc1cc(OC2CCN([C@H]3C[C@](CC#N)(n4cc(-c5ncnc6[nH]ccc56)cn4)C3)CC2)nc(C(F)(F)F)c1 [Compound 23, {trans-3-(4-{[4-({[(1S)-2-hydroxy-1-methylethyl]amino}methyl)-6-(trifluoromethyl)pyridin-2-yl]oxy}piperidin-1-yl)-1-[4-(7H-pyrrolo[2,3-d]pyrimidin-4-yl)-1H-pyrazol-1-yl]cyclobutyl}acetonitrile]	–
< 10	>10	N#CC[C@]1(n2cc(-c3ncnc4[nH]ccc34)cn2)C[C@H](N2CCC(Oc3cc(CCO)cc(C(F)(F)F)n3)CC2)C1 [Compound 26, {trans-3-(4-{[4-(2-hydroxyethyl)-6-(trifluoromethyl)pyridin-2-yl]oxy}piperidin-1-yl)-1-[4-(7H-pyrrolo[2,3-d]pyrimidin-4-yl)-1H-pyrazol-1-yl]cyclobutyl}acetonitrile]	–
< 10	>10	N#CCC(C1CCN(c2cccc(Cl)n2)C1)n1cc(-c2ncnc3[nH]ccc23)cn1 (single isomer, unassigned) [Compound 6, 3-[1-(6-chloropyridin-2-yl)pyrrolidin-3-yl]-3-[4-(7H-pyrrolo[2,3-d]pyrimidin-4-yl)-1H-pyrazol-1-yl]propanenitrile]	–
< 10	>10	N#CCC(CN1CCN(C(=O)c2ccc(C#N)cc2F)CC1)n1ccc(-c2ncnc3[nH]ccc23)c1 (stereo not shown) [Compound 9, 4-[(4-{3-cyano-2-[3-(7H-pyrrolo[2,3-d]pyrimidin-4-yl)-1H-pyrrol-1-yl]propyl}piperazin-1-yl)carbonyl]-3-fluorobenzonitrile]	–
< 10	>10	C[C@H](NC(=O)c1cc(F)c(N2CC(CC#N)(n3cc(-c4ncnc5[nH]ccc45)cn3)C2)cc1F)C(F)(F)F [Compound 16, 4-{3-(cyanomethyl)-3-[4-(7H-pyrrolo[2,3-d]pyrimidin-4-yl)-1H-pyrazol-1-yl]azetidin-1-yl}-2,5-difluoro-N-[(1S)-2,2,2-trifluoro-1-methylethyl]benzamide]	–
< 10	>10	N#CC[C@]1(n2cc(-c3ncnc4[nH]ccc34)cn2)C[C@H](N2CCC(Oc3cc(CN4CC(O)C4)cc(C(F)(F)F)n3)CC2)C1 [Compound 11, {trans-3-(4-{[4-[(3-hydroxyazetidin-1-yl)methyl]-6-(trifluoromethyl)pyridin-2-yl]oxy}piperidin-1-yl)-1-[4-(7H-pyrrolo[2,3-d]pyrimidin-4-yl)-1H-pyrazol-1-yl]cyclobutyl}acetonitrile]	–
< 100	>10	C[C@@H](O)c1nc2cnc3ccsc3c2n1[C@H]1CC[C@H](CC#N)OC1 [Compound 5, ((2R,5S)-5-{2-[(1R)-1-hydroxyethyl]-1H-imidazo[4,5-d]thieno[3,2-b]pyridin-1-yl}tetrahydro-2H-pyran-2-yl)acetonitrile]	–
< 10	>10	N#CCC(C1CCN(c2nc3cccnc3o2)C1)n1cc(-c2ncnc3[nH]ccc23)cn1 (stereo not shown) [Compound 7, 3-(1-[1,3]oxazolo[5,4-b]pyridin-2-ylpyrrolidin-3-yl)-3-[4-(7H-pyrrolo[2,3-d]pyrimidin-4-yl)-1H-pyrazol-1-yl]propanenitrile]	–
< 10	>10	C[C@H](O)CNCc1cc(OC2CCN([C@H]3C[C@](CC#N)(n4cc(-c5ncnc6[nH]ccc56)cn4)C3)CC2)nc(C(F)(F)F)c1 [Compound 25, {trans-3-(4-{[4-({[(2S)-2-hydroxypropyl]amino}meth-yl)-6-(trifluoromethyl)pyridin-2-yl]oxy}piperidin-1-yl)-1-[4-(7H-pyrrolo[2,3-d]pyrimidin-4-yl)-1H-pyrazol-1-yl]cyclobutyl}acetonitrile]	–
< 10	>10	N#CCC1(n2cc(-c3ncnc4[nH]ccc34)cn2)CN([C@H]2CC[C@@H](Oc3cc(CN4CC[C@@H](O)C4)cc(C(F)(F)F)n3)CC2)C1 [Compound 21, {1-(cis-4-{[4-{[(3R)-3-hydroxypyrrolidin-1-yl]methyl}-6-(trifluoromethyl)pyridin-2-yl]oxy}cyclohexyl)-3-[4-(7H-pyrrolo[2,3-d]pyrimidin-4-yl)-1H-pyrazol-1-yl]azetidin-3-yl}acetonitrile]	–
< 10	>10	C[C@@H](O)CNCc1cc(OC2CCN([C@H]3C[C@](CC#N)(n4cc(-c5ncnc6[nH]ccc56)cn4)C3)CC2)nc(C(F)(F)F)c1 [Compound 24, {trans-3-(4-{[4-({[(2R)-2-hydroxypropyl]amino}meth-yl)-6-(trifluoromethyl)pyridin-2-yl]oxy}piperidin-1-yl)-1-[4-(7H-pyrrolo[2,3-d]pyrimidin-4-yl)-1H-pyrazol-1-yl]cyclobutyl}acetonitrile]	–
